This note sets out measurements from US8492377B2, “MTKI quinazoline derivatives” (Janssen Pharmaceutica NV, priority 2006, dated 2013).

Structures are written as SMILES. Counter-ions that a name gives are not always drawn. Some results are limits rather than exact numbers.

Test system in the first data set: not given
Assay: not given
Settings: not given
In general, melting point refers to the temperature of the solid-liquid transition. With `Brc1cc2c(c3c1OCO3)Nc1ncnc3cc(OCCCN4CCCC4)c(cc13)OCCCCCNC2` (as salt: HCl) [Compound B27], the melting point was found to be 224 °C.
`CN1CCN(CCCOc2cc3ncnc4c3cc2OCCCCCNCc2cc(Br)c3c(c2N4)OCO3)CC1` (as salt: HCl) [Compound B28]: the melting point was found to be 244 °C.
Molecule `CN1CCCCCOc2cc3c(ncnc3cc2OCCCNC(=O)OC(C)(C)C)Nc2c(ccc3c2OCO3)C1` [Compound A56] showed a melting point of 210 to 213 °C.
Same read-out and setting: the result for `COc1cc2c3c(ncnc3c1)Nc1c(ccc3c1OCO3)CNCCCCCO2` [Compound B47] reads 250 °C; that for `CN1CCCCCOc2cc3c(ncnc3cc2OCCCNCCO)Nc2c(cc(Br)c3c2OCO3)C1` [Compound B71], 241 °C.

The target in another data set is human Fyn (Homo sapiens, UniProt P06241). Put plainly: C2: Fyn kinase assay. Format: biochemical. The note with it: 5 ng human Fyn, 1.0 μM unlabeled ATP, poly(Glu,Tyr) 4:1, 25° C., 10 minutes; read-out: C2: Fyn kinase pIC50 (converted). The method, then: In this assay the Fyn kinase reaction is performed at 25° C. for 10 minutes in a 96-well microtiterplate. The 25 μl reaction volume contains 8 mM MOPS pH 7.0, 20 mM Mg-acetate, 0.2 mM Na2EDTA, 0.5 mM MnCl2, 1.0 μM unlabeled ATP, 0.2 μCi AT^33P, 20 ng poly(Glu,Tyr) 4:1 and 5 ng human Fyn.
Chain of human Fyn (P06241 whole entry): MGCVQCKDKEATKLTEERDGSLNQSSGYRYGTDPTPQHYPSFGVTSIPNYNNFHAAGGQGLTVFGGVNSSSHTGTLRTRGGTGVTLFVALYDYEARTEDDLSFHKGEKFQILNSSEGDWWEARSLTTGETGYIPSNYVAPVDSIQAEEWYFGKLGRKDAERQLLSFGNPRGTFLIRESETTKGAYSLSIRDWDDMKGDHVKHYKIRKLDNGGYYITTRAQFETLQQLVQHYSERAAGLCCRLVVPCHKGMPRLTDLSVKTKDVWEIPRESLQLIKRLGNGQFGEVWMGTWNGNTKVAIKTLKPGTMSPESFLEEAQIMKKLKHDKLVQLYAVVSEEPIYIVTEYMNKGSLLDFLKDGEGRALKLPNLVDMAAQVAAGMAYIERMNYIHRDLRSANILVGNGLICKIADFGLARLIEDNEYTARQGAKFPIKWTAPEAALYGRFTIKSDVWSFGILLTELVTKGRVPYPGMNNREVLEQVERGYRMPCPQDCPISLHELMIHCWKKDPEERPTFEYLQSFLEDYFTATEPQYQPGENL
The reaction is stopped by adding 5 μl of a 3% phosphoric acid solution. 5 μl of the reaction mixture is then spotted onto a Filtermat A filter (Wallac) and washed 3 times for 5 min. in 75 mM phosphoric acid and 1 time for 5 min. in methanol prior to drying and scintillation counting.
`CN1CCCCCOc2cc3c(ncnc3cc2OCCCNC(=O)OC(C)(C)C)Nc2c(ccc3c2OCO3)C1` [Compound A56]: the IC50 was less than 1000 nM.
With `CN1CCN(CCCOc2cc3ncnc4c3cc2OCCCNCCN(C)Cc2ccc3c(c2N4)OCO3)CC1` [Compound B3], the IC50 was 11.7 nM.
Consider `COCCOCCOc1cc2ncnc3c2cc1OCCCNCCN(C)Cc1ccc2c(c1N3)OCO2` [Compound B4], for which the IC50 is 23.4 nM.
Same read-out and setting: the result for `CN(CCO)CCCOc1cc2ncnc3c2cc1OCCCNCCN(C)Cc1ccc2c(c1N3)OCO2` [Compound B5] reads 20.9 nM; that for `COc1cc2ncnc3c2cc1OCCCCCNCc1cc(Br)c2c(c1N3)OCO2` [Compound B8], 16.6 nM.
For the molecule `COc1cc2ncnc3c2cc1OCCCN(C)CCN(C)Cc1ccc2c(c1N3)OCO2` [Compound B10], the IC50 was 21.9 nM.
The same measure, in the same setting: for `CN1CCN(CCCOc2cc3ncnc4c3cc2OCCCCCN(C)Cc2ccc3c(c2N4)OCO3)CC1` [Compound B12] the value was 0.275 nM; for `CN1CCCCCOc2cc3c(ncnc3cc2OCCCN2CCN(CCO)CC2)Nc2c(ccc3c2OCO3)C1` [Compound B13], 3.63 nM; for `CN(CCO)CCCOc1cc2ncnc3c2cc1OCCCCCN(C)Cc1ccc2c(c1N3)OCO2` [Compound B15], 0.174 nM.
Take `CN1CCCCCOc2cc3c(ncnc3cc2OCCCNC(=O)CCS(C)(=O)=O)Nc2c(ccc3c2OCO3)C1` [Compound B16]: the IC50 is less than 1000 nM.
The same measure, in the same setting: for `COc1cc2ncnc3c2cc1OCCCCCNCc1cc(Oc2ccc(C)nc2)c2c(c1N3)OCO2` [Compound B17] the value was 40.7 nM; for `CN1CCCCCOc2cc3c(ncnc3cc2OCCCN2CCOCC2)Nc2c(ccc3c2OCO3)C1` [Compound B18], less than 1 nM.
`CN1CCCCCOc2cc3c(ncnc3cc2OCCCN2CCCCC2)Nc2c(ccc3c2OCO3)C1` [Compound B19]: the IC50 was 1.23 nM.
As to `CN1CCCCCOc2cc3c(ncnc3cc2OCCCN2CCCC2)Nc2c(ccc3c2OCO3)C1` [Compound B21], the IC50 was 0.0575 nM.
Turning to `CN1CCC(COc2cc3ncnc4c3cc2OCCCCCN(C)Cc2ccc3c(c2N4)OCO3)CC1` [Compound B22], the IC50 is greater than 1000 nM.
Consider `CN1CCCCCOc2cc3c(ncnc3cc2OCCCN2CCS(=O)(=O)CC2)Nc2c(ccc3c2OCO3)C1` [Compound B23], for which the IC50 was less than 1000 nM.
Consider `CN1CCCCCOc2cc3c(ncnc3cc2OC[C@@H](O)CN2CCS(=O)(=O)CC2)Nc2c(ccc3c2OCO3)C1` [Compound B24], for which the IC50 was less than 1000 nM.
On the same count and under the same terms, for `CN1CCCCCOc2cc3c(ncnc3cc2OC[C@H](O)CN2CCS(=O)(=O)CC2)Nc2c(ccc3c2OCO3)C1` [Compound B25] the value was 5.25 nM; for `COCCOCCOc1cc2ncnc3c2cc1OCCCCCN(C)Cc1ccc2c(c1N3)OCO2` [Compound B31], less than 1 nM.
As for `CN1CCNCCCOc2cc3c(ncnc3cc2OCCCN2CCOCC2)Nc2c(ccc3c2OCO3)C1` [Compound B34], the IC50 is less than 1000 nM.
Regarding `COCCNCCCOc1cc2ncnc3c2cc1OCCCNCCN(C)Cc1ccc2c(c1N3)OCO2` [Compound B35], the IC50 is 29.5 nM.
As for `COc1cc2ncnc3c2cc1OCCCCCN(C)Cc1cc(Br)c2c(c1N3)OCO2` [Compound B43], the IC50 is 19.5 nM.
Regarding `COc1cc2c3c(ncnc3c1)Nc1c(ccc3c1OCO3)CNCCCCCO2` [Compound B47], the IC50 is 120 nM.
For `CN1CCCCCOc2cc3c(ncnc3cc2OCCC2CCN(C(=O)CCS(C)(=O)=O)CC2)Nc2c(ccc3c2OCO3)C1` [Compound B65], the IC50 is 5.75 nM.
Take `CN1CCCCCOc2cc3c(ncnc3cc2OCCCNCCS(C)(=O)=O)Nc2c(ccc3c2OCO3)C1` [Compound B68]: the IC50 was less than 1000 nM.
On the same count and under the same terms, for `CN1CCCCCOc2cc3c(ncnc3cc2OCCCNCCO)Nc2c(ccc3c2OCO3)C1` [Compound B69] the value was 6.17 nM; for `COCCNCCCOc1cc2ncnc3c2cc1OCCCCCN(C)Cc1ccc2c(c1N3)OCO2` [Compound B70], 5.01 nM.

The target of the next data set is human Src (Homo sapiens, UniProt P12931). Put plainly: C1: c-Src filter assay. Format: biochemical. The note with it: 5 ng human Src, 1.0 μM unlabeled ATP, poly(Glu,Tyr) 4:1, 25° C., 10 minutes; read-out: C1: c-SRC filter pIC50 (converted). The method, then: The in vitro inhibition of c-Src kinase was assessed using the glass-fiber filter technology as described by Davies, S. P. et al., Biochem J. (2000), 351; p. 95-105.
Chain of human Src (P12931 whole entry): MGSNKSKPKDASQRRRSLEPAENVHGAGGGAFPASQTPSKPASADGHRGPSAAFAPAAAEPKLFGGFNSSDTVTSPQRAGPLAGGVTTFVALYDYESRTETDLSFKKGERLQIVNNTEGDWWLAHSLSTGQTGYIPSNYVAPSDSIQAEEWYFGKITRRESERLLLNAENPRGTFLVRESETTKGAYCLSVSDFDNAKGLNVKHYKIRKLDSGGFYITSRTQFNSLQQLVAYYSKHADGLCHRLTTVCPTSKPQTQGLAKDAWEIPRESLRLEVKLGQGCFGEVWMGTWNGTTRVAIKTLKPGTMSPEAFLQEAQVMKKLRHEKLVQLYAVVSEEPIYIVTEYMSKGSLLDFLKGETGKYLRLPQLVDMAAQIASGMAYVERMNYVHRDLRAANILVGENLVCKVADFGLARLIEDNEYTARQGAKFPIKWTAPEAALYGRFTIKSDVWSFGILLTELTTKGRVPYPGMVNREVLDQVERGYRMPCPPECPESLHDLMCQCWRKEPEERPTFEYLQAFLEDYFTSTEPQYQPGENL
In the glass-fiber filter technology the activity of the kinase is measured using an appropriate substrate that is incubated with the aforementioned kinase protein in the presence of (^33P) radiolabeled ATP. (^33P) Phosporylation of the substrate is subsequently measured as radioactivity bound on a glassfiber-filter.
In an alternative filter based assay the final kinase activity was assessed using a phosphostorage screen instead of scintilation counting.
In this assay the Src kinase reaction is performed at 25° C. for 10 minutes in a 96-well microtiterplate. The 25 μl reaction volume contains 8 mM MOPS pH 7.0, 20 mM Mg-acetate, 0.2 mM Na2EDTA, 0.5 mM MnCl2, 1.0 μM unlabeled ATP, 0.2 μCi AT^33P, 20 ng poly(Glu,Tyr) 4:1 and 5 ng human Src.
The reaction is stopped by adding 5 μl of a 3% phosphoric acid solution. 5 μl of the reaction mixture is then spotted onto a Filtermat A filter (Wallac) and washed 3 times for 5 min. in 75 mM phosphoric acid and 1 time for 5 min. in methanol prior to drying and quantification on the Typhoon (Amersham) using a phosphostorage screen.
For the molecule `CN1CCCCCOc2cc3c(ncnc3cc2OCCCNC(=O)OC(C)(C)C)Nc2c(ccc3c2OCO3)C1` [Compound A56], the IC50 is greater than 10000 nM.
With `CN1CCN(CCCOc2cc3ncnc4c3cc2OCCCNCCN(C)Cc2ccc3c(c2N4)OCO3)CC1` [Compound B3], the IC50 is 447 nM.
Consider `COCCOCCOc1cc2ncnc3c2cc1OCCCNCCN(C)Cc1ccc2c(c1N3)OCO2` [Compound B4], for which the IC50 was 1480 nM.
The same measure, in the same setting: for `CN(CCO)CCCOc1cc2ncnc3c2cc1OCCCNCCN(C)Cc1ccc2c(c1N3)OCO2` [Compound B5] the value was 501 nM; for `COc1cc2ncnc3c2cc1OCCCCCNCc1cc(Br)c2c(c1N3)OCO2` [Compound B8], 6460 nM.
For the molecule `COc1cc2ncnc3c2cc1OCCCN(C)CCN(C)Cc1ccc2c(c1N3)OCO2` [Compound B10], the IC50 was 1910 nM.
As for `CN1CCN(CCCOc2cc3ncnc4c3cc2OCCCCCN(C)Cc2ccc3c(c2N4)OCO3)CC1` [Compound B12], the IC50 was 263 nM.
As to `CN1CCCCCOc2cc3c(ncnc3cc2OCCCN2CCN(CCO)CC2)Nc2c(ccc3c2OCO3)C1` [Compound B13], the IC50 is 295 nM.
On the same count and under the same terms, for `CN(CCO)CCCOc1cc2ncnc3c2cc1OCCCCCN(C)Cc1ccc2c(c1N3)OCO2` [Compound B15] the value was 562 nM; for `CN1CCCCCOc2cc3c(ncnc3cc2OCCCNC(=O)CCS(C)(=O)=O)Nc2c(ccc3c2OCO3)C1` [Compound B16], 2290 nM.
Consider `COc1cc2ncnc3c2cc1OCCCCCNCc1cc(Oc2ccc(C)nc2)c2c(c1N3)OCO2` [Compound B17], for which the IC50 is greater than 10000 nM.
Still for that read-out and setting: the result for `CN1CCCCCOc2cc3c(ncnc3cc2OCCCN2CCOCC2)Nc2c(ccc3c2OCO3)C1` [Compound B18] reads 468 nM.
Take `CN1CCCCCOc2cc3c(ncnc3cc2OCCCN2CCCCC2)Nc2c(ccc3c2OCO3)C1` [Compound B19]: the IC50 is 617 nM.
The same measure, in the same setting: for `CN1CCCCCOc2cc3c(ncnc3cc2OCCCN2CCCC2)Nc2c(ccc3c2OCO3)C1` [Compound B21] the value was 575 nM.
The same measure, in the same setting: the result for `CN1CCC(COc2cc3ncnc4c3cc2OCCCCCN(C)Cc2ccc3c(c2N4)OCO3)CC1` [Compound B22] reads 1290 nM; that for `CN1CCCCCOc2cc3c(ncnc3cc2OCCCN2CCS(=O)(=O)CC2)Nc2c(ccc3c2OCO3)C1` [Compound B23], 708 nM; that for `CN1CCCCCOc2cc3c(ncnc3cc2OC[C@@H](O)CN2CCS(=O)(=O)CC2)Nc2c(ccc3c2OCO3)C1` [Compound B24], 676 nM.
Consider `CN1CCCCCOc2cc3c(ncnc3cc2OC[C@H](O)CN2CCS(=O)(=O)CC2)Nc2c(ccc3c2OCO3)C1` [Compound B25], for which the IC50 was 1410 nM.
For the molecule `COCCOCCOc1cc2ncnc3c2cc1OCCCCCN(C)Cc1ccc2c(c1N3)OCO2` [Compound B31], the IC50 is 2630 nM.
Consider `CN1CCNCCCOc2cc3c(ncnc3cc2OCCCN2CCOCC2)Nc2c(ccc3c2OCO3)C1` [Compound B34], for which the IC50 was 427 nM.
For `COCCNCCCOc1cc2ncnc3c2cc1OCCCNCCN(C)Cc1ccc2c(c1N3)OCO2` [Compound B35], the IC50 was 631 nM.
Consider `COc1cc2ncnc3c2cc1OCCCCCN(C)Cc1cc(Br)c2c(c1N3)OCO2` [Compound B43], for which the IC50 is greater than 10000 nM.
Turning to `CN1CCCCCOc2cc3c(ncnc3cc2OCCC2CCN(C(=O)CCS(C)(=O)=O)CC2)Nc2c(ccc3c2OCO3)C1` [Compound B65], the IC50 is 1820 nM.
Take `CN1CCCCCOc2cc3c(ncnc3cc2OCCCNCCS(C)(=O)=O)Nc2c(ccc3c2OCO3)C1` [Compound B68]: the IC50 is 692 nM.
For the molecule `CN1CCCCCOc2cc3c(ncnc3cc2OCCCNCCO)Nc2c(ccc3c2OCO3)C1` [Compound B69], the IC50 was 479 nM.
Same read-out and setting: for `COCCNCCCOc1cc2ncnc3c2cc1OCCCCCN(C)Cc1ccc2c(c1N3)OCO2` [Compound B70] the value was 776 nM.
